ChEMBL document CHEMBL5728354, “1,2-dihydro-3H-pyrazolo[3,4-d]pyrimidin-3-one derivative as Wee1 inhibitor” (2021)

Molecular target: Wee1-like protein kinase (Homo sapiens, UniProt P30291)
Test: In Vitro Enzymatic Inhibitory Activity Assay: Experimental Reagents:Basic reaction buffer: 20 mM hydroxyethylpiperazine ethanesulfuric acid (pH 7.5), 10 mM magnesium chloride, 1 mM EGTA, 0.02% Brij35, 0.02 mg/mL bovine serum albumin, 0.1 mM Na3VO4, 2 mM DTT, 1% DMSOEnzyme: Wee-1 concentration is 150 nMMatrix: MBP concentration is 20 μMCompound Treatment:The tested compound was formulated into a 5 mM solution with 100% DMSO, and a 10 points 3-fold gradient dilution was performed with DMSO through an automated pipetting station epMotion 5070.Experiment Procedure:1. Fresh matrix configuration reaction buffer was prepared;2. The Wee-1 was added into the matrix solution and shaked gently;3. DMSO solution of the compound were added into the kinase reaction mixture using an acoustic technique (Echo 550; nanoliter range) and incubated for 20 minutes at room temperature;4. 33P-ATP (specific activity, 10 μCi/μL) was added into the reaction mixture to stimulate the reaction;5. Incubated for 2 hours at room temperature;6. Kinase activity was detected by filter-binding method.

Sequence of Wee1-like protein kinase (P30291 whole entry): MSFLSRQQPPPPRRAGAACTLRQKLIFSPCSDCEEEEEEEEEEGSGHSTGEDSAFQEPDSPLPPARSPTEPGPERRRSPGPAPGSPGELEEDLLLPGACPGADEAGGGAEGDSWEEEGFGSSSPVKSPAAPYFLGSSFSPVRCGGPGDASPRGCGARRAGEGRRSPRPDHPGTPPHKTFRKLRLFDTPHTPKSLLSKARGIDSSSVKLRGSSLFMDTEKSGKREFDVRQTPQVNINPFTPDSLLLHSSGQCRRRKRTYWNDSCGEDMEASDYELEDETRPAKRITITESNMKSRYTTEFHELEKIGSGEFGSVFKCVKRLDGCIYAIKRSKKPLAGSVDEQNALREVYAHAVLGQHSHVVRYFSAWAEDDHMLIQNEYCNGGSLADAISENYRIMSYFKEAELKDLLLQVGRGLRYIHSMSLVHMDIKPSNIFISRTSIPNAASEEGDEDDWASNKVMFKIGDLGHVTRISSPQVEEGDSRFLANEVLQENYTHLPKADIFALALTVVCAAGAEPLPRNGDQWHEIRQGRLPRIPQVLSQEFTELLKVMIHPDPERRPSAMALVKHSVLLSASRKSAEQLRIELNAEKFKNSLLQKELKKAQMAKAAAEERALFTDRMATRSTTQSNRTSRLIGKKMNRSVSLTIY

C=CCn1c2nc(Nc3ccc(N4CCC5(CCN(C)CC5)CC4)cc3)ncc2c(=O)n1-c1ccccc1Cl
IC50: 620 nM

C=CCn1c(=O)c2cnc(Nc3ccc(N4CCC5(CCN(C)CC5)CC4)cn3)nc2n1-c1cccc(C(C)(C)O)n1
IC50: 64.6 nM

C=CCn1c(=O)c2cnc(Nc3ccc(N4CCC5(CCN(C)CC5)CC4)cc3)nc2n1-c1cnccn1
IC50: 90.4 nM
